{"source": "patent US9150521B2", "about": "“Methods of preventing and treating diabetes by inhibiting serotonin synthesis” (The Trustees of Columbia University in the City of New York, priority 2012, dated 2015)", "key": {"[1]": {"system": "epididymal fat pads", "assay": "In vitro lipolysis of isolated fat pads", "assay_type": "cell-based, mouse", "protocol": "(§1) In vitro lipolysis assay was performed as described (4). Briefly, epididymal fat pads were isolated and washed several times in Hank's Balanced Salt Solution (HBSS) (Sigma). Tissue pieces (˜25 mg) were incubated in Dulbecco's Modified Eagle's Medium (DMEM) medium (Invitrogen) containing 2% fatty acid free bovine serum albumin (Sigma) at 37° C. for 1 h. After this preincubation, the fat explants were transferred into identical, fresh medium containing serotonin (Sigma) or 10 μM forskolin as a positive control and incubated further for the indicated time-points at 37° C. Afterwards, aliquots of medium were taken for measurements of FFAs and glycerol using available kits (NEFA-HR(2), WAKO Diagnostics; serum triglycerides determination kit, TR0100, Sigma) and tissue was lysed with RIPA buffer for subsequent Western blot analysis or in TRIZOL® (Invitrogen) for gene expression analysis."}, "[2]": {"system": "WT mice", "assay": "Insulin tolerance test", "assay_type": "in vivo", "text": "(§2) Mice were housed under 12:12 light:dark cycle and chow and water were provided ad libitum. All animals were maintained according to NIH guidelines. The Htr2bflox/flox, Tph1flox/flox, and Villin-cre mice have been described previously (1). Alb-cre and aP2-cre mice were obtained from the Jackson Laboratory. For glucose tolerance tests mice were fasted overnight before i.p. injection of 2 g/kg body weight (BW) d-glucose in phosphate buffered saline (PBS) or 1 g/kg BW when mice were fed high fat diet. For pyruvate tolerance tests, mice were fasted overnight, injected i.p. with 2 g/kg BW sodium pyruvate in PBS. Glycerol tolerance test (4 g/kg BW) was performed after 4 h fasting. For insulin tolerance tests, mice were injected with 0.75 U/kg of insulin after 4 h fasting. Glucose was measured by tail vein bleeds at the indicated intervals using an ACCU-CHECK® glucometer. Measurement of free fatty acids (FFA) and glycerol were performed in plasma using a serum triglycerides determination kit (TR0100, Sigma) and a NEFA-HR(2) kit (WAKO Diagnostics). Plasma concentration of serotonin and glucagon were determined by Glucagon ELISA (Alpco, 48-GLUHU-E01) and Serotonin (Research) ELISA, (IBL-America, IB89540). Hyperinsulinemic-euglycemic clamp was performed in the University of Massachusetts Mouse Phenotyping Center, University of Massachusetts Medical School. […]"}, "[3]": {"system": "WT mice", "assay": "Plasma levels of glycerol and FFA in mice", "assay_type": "in vivo", "text": "(§3) All animals were maintained according to NIH guidelines."}, "[4]": {"system": "WT mice", "assay": "Pyruvate tolerance test (gluconeogenesis)", "assay_type": "in vivo", "text": "as §2"}, "[5]": {"system": "WT mice", "assay": "Glucose tolerance test", "assay_type": "in vivo", "text": "as §2"}, "[6]": {"molecular_target": "TPH1 (Mus musculus, UniProt P17532)", "sequence (P17532 whole entry)": "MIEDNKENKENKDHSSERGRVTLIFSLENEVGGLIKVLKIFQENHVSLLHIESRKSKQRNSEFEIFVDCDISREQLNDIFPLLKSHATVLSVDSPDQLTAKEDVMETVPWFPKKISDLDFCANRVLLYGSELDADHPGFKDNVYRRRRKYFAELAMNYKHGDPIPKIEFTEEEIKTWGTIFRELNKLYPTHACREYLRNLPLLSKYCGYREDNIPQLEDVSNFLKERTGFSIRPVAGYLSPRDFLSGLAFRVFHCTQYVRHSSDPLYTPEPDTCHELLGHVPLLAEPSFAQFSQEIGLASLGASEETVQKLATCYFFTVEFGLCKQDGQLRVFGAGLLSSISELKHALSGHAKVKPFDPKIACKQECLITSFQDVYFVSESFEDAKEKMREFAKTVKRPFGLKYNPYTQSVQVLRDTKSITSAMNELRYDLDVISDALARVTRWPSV", "conditions": "WT mice fed a high fat diet; LP533401 100 mg/kg/day by gavage", "text": "as §2"}, "[7]": {"conditions": "reference 24 (Liu et al. 2008); cited from earlier work"}, "[8]": {"system": "WT mice", "assay": "Glycerol tolerance test in WT mice implanted with serotonin-releasing pellets", "assay_type": "in vivo", "conditions": "WT mice implanted with serotonin pellets vs placebo controls", "text": "as §3"}, "[9]": {"system": "primary hepatocytes", "assay": "In vitro glucose production in primary hepatocytes", "assay_type": "cell-based, mouse", "conditions": "for conversion of glycerol to glucose in hepatocytes: primary hepatocytes, indicated doses of serotonin or 100 nM glucagon", "protocol": "Production of glucose was assessed in primary, freshly isolated, attached hepatocytes. Briefly, cells were platted on 12 well plate format (200,000 cells per well). After isolation, the cells were allowed to attach and recover for 6 h in Williams E medium containing 10% fetal calf serum. Then they were washed and starved for 1 h in Dulbecco's Modified Eagle's DMEM without glucose and phenol red but with 2 mM L-glutamate and 0.5% BSA (D5030, Sigma). Then the cells were switched to the same medium or the same medium containing 10 mM glycerol and stimulated with the indicated substances for 6 h. Glucose concentration was determined in the medium using Amplex Red Glucose/Glucose Oxidase Assay Kit, (Invitrogen, A22189). Glucose production from glycerol was determined by subtracting glucose produced by the cells incubated without glycerol from this incubated with glycerol."}, "[10]": {"system": "hormone sensitive lipase (HSL)", "assay": "Western blot of lipolytic enzymes in fat explants stimulated with serotonin", "assay_type": "cell-based, mouse", "conditions": "50 μM serotonin, Htr2b-dependent", "protocol": "as §1\nWestern blotting was performed according to standard procedures. Frozen tissues or cells were homogenized and lysed with RIPA buffer. Membranes were blocked and then incubated overnight with primary antibody in TBST-5% BSA, followed by incubation with appropriate HRP-conjugated secondary antibody. Signals were visualized with ECL. […]"}, "[11]": {"assay": "Plasma serotonin concentration in mice implanted with serotonin-releasing pellets", "assay_type": "in vivo", "conditions": "WT mice, subcutaneous serotonin releasing pellets", "text": "as §3\nThis was done by implanting subcutaneously serotonin releasing pellets in WT mice. These pellets increased circulating levels of serotonin approximately two-fold (FIG. 5C)."}, "[12]": {"conditions": "Htr2b-deficient fat pad explants, 50 μM serotonin or 1 μM isoproterenol"}, "[13]": {"conditions": "WT mice fed a normal diet, compared with Tph1gutΔ/Δ mice"}, "[14]": {"conditions": "mice fed a high fat diet, LP533401 100 mg/kg/day"}, "[15]": {"conditions": "WT mice fed a high fat diet, fasted for 4 h, LP533401 100 mg/kg/day"}, "[16]": {"conditions": "fed WT mice, subcutaneous serotonin releasing pellets"}, "[17]": {"conditions": "epididymal fat pads treated with increasing amounts of serotonin"}}, "data": [{"molecule": "CC(C)NCC(O)c1ccc(O)c(O)c1", "note": "(stereo not drawn) [isoproterenol]", "values": [{"measurement": "release of FFAs", "setting": "[1]; [12]", "value": "favored equally well"}, {"measurement": "release of glycerol", "setting": "[1]; [12]", "value": "favored equally well"}]}, {"molecule": "Nc1nc(OC(c2ccc(-c3cccc(F)c3)cc2)C(F)(F)F)cc(-c2ccc(C[C@H](N)C(=O)O)cc2)n1", "note": "(stereo partly drawn) [LP533401]", "values": [{"measurement": "insulin tolerance", "setting": "[2]; [13]", "value": "improved"}, {"measurement": "insulin sensitivity", "setting": "[2]; [14]", "value": "normalized"}, {"measurement": "FFAs circulating levels", "setting": "[3]; [15]", "value": "normalization"}, {"measurement": "glycerol circulating levels", "setting": "[3]; [15]", "value": "decrease"}, {"measurement": "FFA levels", "setting": "[3]; WT mice fed a normal diet", "value": "decreased"}, {"measurement": "glycerol levels", "setting": "[3]; WT mice fed a normal diet", "value": "decreased"}, {"measurement": "gluconeogenesis rate", "setting": "[4]; WT mice fed a normal diet", "value": "decreased"}, {"measurement": "gluconeogenesis", "setting": "[4]; [14]", "value": "significantly improved"}, {"measurement": "glucose tolerance", "setting": "[5]; [13]", "value": "improved"}, {"measurement": "glucose tolerance", "setting": "[5]; [14]", "value": "significantly improved"}, {"measurement": "reduction of circulating serotonin levels", "setting": "[6]", "value": 80, "unit": "%"}, {"measurement": "crossing of the blood-brain barrier", "setting": "[7]", "value": "does not cross efficiently the blood-brain barrier"}]}, {"molecule": "NCCc1c[nH]c2ccc(O)cc12", "note": "[serotonin, 5-hydroxytryptamine]", "values": [{"measurement": "lipolysis", "setting": "[3]; WT mice implanted with serotonin pellets, fasted for 4 h", "value": "further enhanced"}, {"measurement": "circulating levels of FFAs", "setting": "[3]; [16]", "value": "significant increase"}, {"measurement": "circulating levels of glycerol", "setting": "[3]; [16]", "value": "significant increase"}, {"measurement": "blood glucose levels after glycerol", "setting": "[8]", "value": "to a higher level than in controls"}, {"measurement": "glucose production from glycerol", "setting": "[9]; Htr2bΔ/Δ hepatocytes, 50 μM serotonin", "value": "could not induce"}, {"measurement": "conversion of glycerol to glucose in hepatocytes", "setting": "[9]", "value": "stimulated"}, {"measurement": "release of FFAs", "setting": "[1]; [12]", "value": "failed to enhance"}, {"measurement": "release of glycerol", "setting": "[1]; [12]", "value": "failed to enhance"}, {"measurement": "release of FFAs", "setting": "[1]; [17]", "value": "significantly increased"}, {"measurement": "release of glycerol", "setting": "[1]; [17]", "value": "significantly increased"}, {"measurement": "phosphorylation of hormone sensitive lipase (HSL) on serine residues 563 and 660", "setting": "[10]", "value": "favored"}, {"measurement": "increase of circulating levels of serotonin", "setting": "[11]", "value": "approximately two-fold"}]}, {"molecule": "glucagon", "values": [{"measurement": "conversion of glycerol to glucose in hepatocytes", "setting": "[9]", "value": "stimulated"}]}]}
